Experimental data taken from patent US12096770B2, “Method for preparing an insect repellent agent” (CENTRE NATIONAL DE LA RECHERCHE SCIENTIFIQUE, priority 2019, dated 2024).
In brackets after ≈: the same amount, converted by molar mass. Several values for one entry are separate records, joined by “and”; a condition that tells them apart may be missing. Equal entries are not always repeated.

Columns and labels:
Aedes albopictus = test: Behavioural (blood-feeding) repellency test on tiger mosquitoes with feeders covered by pig intestinal skin; type: in vivo; conditions: for % Repellency: 1 hour, relative to EtOH negative control, mean ± standard deviation of 16 replicates; for effect of added compound on repellent activity of PMD: added to commercial cis/trans PMD 75/25 at 200 mg/m^2 in EtOH
Experimental: Testing was performed as to the activity of the compositions obtained by the method according to the invention on the behaviour of the tiger mosquito, Aedes albopictus.
The behavioural tests were carried out at the Montpellier Vectopôle, which is a research centre that collaborates with the WHO for the evaluation of insecticides in public health.
The tests were carried out on mosquitoes aged 5 to 9 days old after their evolution from pupae to adult.
In preparation for the experiment, the mosquitoes were […] on the day prior thereto, in order to promote their appetite for the test to occur the subsequent day.
Each cup contains a damp cotton. The female mosquitoes were removed from the cage making use of a tube that enables aspiration thereof. They were then introduced into each experiment cup (10 mosquitoes per cup).
The tests were carried out on plexiglass racks serving as supports for glass bells known as feeders. The latter are connected to each other by plastic pipes wherein water circulates at 37° C.
Pig intestinal skin was used to mimic human skin in the experiment. The pieces of intestinal skin are positioned and stretched over the feeders.
The repellent is diluted in ethyl alcohol (aka ethanol or EtOH) and is deposited on the skin using a micropipette and then spread over the entire surface. […] If the composition tested is a mixture of at least two compounds, one of which is PMD, the said composition is diluted in ethanol until 0.02036 mg/μL of PMD is obtained.
The feeders are turned over, then 300 μL of sheep blood are placed in each feeder. The cups are inserted under each feeder.
Polystyrene plates are inserted between the lines of repellent so as to avoid possible interactions of odours. The duration of the experiment is one hour. The cups are then placed in a freezer at −20° C. for a period of 40 minutes. After freezing, the contents of one cup are placed between two sheets of paper, with the entirety thereof then being crushed with a plexiglass plate. The counting of the blood-fed (engorged) mosquitoes is done based on the number of red dots on the sheet of paper. The results are expressed as a percentage of repellency (100% −X% of blood-feeding). The percentage of blood-feeding is defined in relation to the EtOH negative control. DEET and commercial cis/trans PMD 75/25 at 200 mg/m^2 were used as positive controls.
The results obtained were statistically analysed using R software (R Development Core Team. R: A language and environment for statistical computing. R Foundation for Statistical Computing, Vienna, Austria. ISBN 3-900051-07-0, 2013) and represent the mean of 16 replicates. The percentage repellency values are presented as a mean±standard deviation. The R software also makes it possible to compare two percentage repellency values by means of calculating the quantity p. This quantity p is a probability.

acetylcholinesterase = conditions: cited from earlier work
[1] = system: olfactory receptors of Aedes albopictus; test: Orientation tests in ElectroAntennogGraphy coupled with Gas Chromatography
Experimental: Orientation tests in ElectroAntennogGraphy coupled with Gas Chromatography were carried out.

Compound	% Repellency (Aedes albopictus; 200 mg/m^2 (of PMD) in EtOH)	effect of added compound on repellent activity of PMD (Aedes albopictus)	other results
CC1CCC(C(C)(C)O)C(O)C1 (mixture of isomers) [Commercial cis/trans PMD 60/40, p-menthane-3,8-diol]	68 ± 15%	–	–
CC1CCC(C(C)(C)O)C(O)C1 (mixture of isomers) [Commercial cis/trans PMD 75/25 derived from R citronellal] [p-menthane-3,8-diol]	24 ± 2%	–	–
CC1CCC(C(C)(C)O)C(O)C1 (mixture of isomers) [Commercial cis/trans PMD 75/25 derived from S citronellal] [p-menthane-3,8-diol]	41 ± 3%	–	–
CC1CCC(C(C)(C)O)C(O)C1 (racemic) [Commercial cis/trans PMD 75/25, p-menthane-3,8-diol]	79 ± 4% and 59 ± 14% and 68 ± 2% and 55 ± 10% and 60 ± 5% and 65 ± 8% and 69 ± 13% and 63 ± 9% and 59 ± 9% and 56 ± 13%	–	% Repellency (Aedes albopictus; 200 mg/m^2 (of PMD) in EtOH, listed as Commercial cis/trans PMD 75/25 derived from RS citronellal (racemic mixture)): 34 ± 1%; ED 50 expressed as concentration (Aedes albopictus; concentration in EtOH tantamount to 200 mg/m^2): 0.02036 mg/µL (≈ 118 mM); ED 50 (median effective dose) (Aedes albopictus; dose deposited on skin): 200 mg/m^2
CC1CCC(C(C)(C)O)C(O)C1 (stereo not drawn) [Commercial cis PMD, p-menthane-3,8-diol]	64 ± 15%	–	–
CC1CCC(C(C)(C)O)C(O)C1 (stereo not drawn) [Commercial trans PMD, p-menthane-3,8-diol]	57 ± 6%	–	–
CCN(CC)C(=O)c1cccc(C)c1 [DEET, N,N diethyl-meta-toluamide]	–	–	acetylcholinesterase inhibition (acetylcholinesterase): inhibits; % Repellency (Aedes albopictus; 110 mg/m^2 in EtOH): 63 ± 5% and 49 ± 4% and 68 ± 10% and 43 ± 1% and 41 ± 6% and 63 ± 8% and 73 ± 7% and 28 ± 8%
CC1CCC(C(C)(C)O)C(O)C1 (stereo not drawn) [PMD, (2-hydroxypropan-2-yl)-5-methylcyclohexan-1-ol]	–	–	recognition in ElectroAntennogGraphy [1]: recognised at very low doses
CC(C)=CCCC(C)CC1OC2CC(C)CCC2C(C)(C)O1 (stereo not drawn) [acetals]	–	enhance the repellent activity of PMD	–
C=C1CC/C=C(\C)CC[C@@H]2[C@@H]1CC2(C)C [caryophyllene, (1R,4E,9S)-4,11,11-trimethyl-8-methylidenebicyclo[7.2.0]undec-4-ene]	–	enhances the repellent activity of PMD	recognition in ElectroAntennogGraphy [1]: recognised at very low doses
CC(C)=CCCC(C)CC=O (stereo not drawn) [citronellal, 3,7-dimethyloct-6-en-1-al]	–	does not boost PMD activity	–
CC(C)=CCCC(C)CCO (stereo not drawn) [citronellol, 3,7-dimethyloct-6-en-1-ol]	–	–	recognition in ElectroAntennogGraphy [1]: recognised at very low doses
C=C(C)C1CCC(C)CC1O (stereo not drawn) [isopulegol, 5-methyl-2-prop-1-en-2-ylcyclohexan-1-ol]	–	may enhance the repellent activity of PMD	–
